“And” between values parts separate entries of the source, which are not always exact repeats. Identical values can stand only once.
Legend:
[1] = system: IDH1(R132H) primary human AML cells; assay: Bone marrow AML clearance (flow cytometry), human AML PDx models in NSG mice; assay type: in vivo
Description: (§1) Compounds and Formulation. For in vivo studies, each test article is prepared at an appropriate concentration with vehicle. […] Compound A is prepared fresh at the appropriate concentrations with vehicle every 7 days and stored at 4° C. between doses. […] Cytarabine is prepared fresh weekly by dilution with sterile saline from stock solution of Cytarabine (injection 20 mg/mL, (Pfizer injectables')). Azacitidine (Sigma, Lot #MKBR7212) is formulated in sterile water and is prepared fresh daily immediately before dosing. In vivo human AML PDx models. […] Two models are used in the studies: […] As needed, splenocytes from tumor-bearing mice are used to propagate and expand the models, as described. Each test article is prepared as described above at an appropriate concentration with vehicle to give animals the doses tested in this study at a dosing volume of 10 μL/gram body weight. Mice receiving Compound A (PO, QD) are treated at the indicated doses for the duration of the study. The combination agents are dosed as follows: […] Treated mice are assessed in comparison to vehicle treated and naïve (non-tumor bearing) control mice. Body weight is recorded twice per week. […] AML PDx model propagation. […] Spleens are processed and splenocytes isolated as described below. Two hundred μL per subject of the splenocyte prep is injected IV (intravenous, tail vein) into recipient NSG mice. […] Once engraftment is confirmed, the mice are monitored biweekly until ready to be put on study. […] Submandibular blood is collected. Spleen/Splenocyte Processing and Prep. After excision, a spleen is weighed, and […] is placed in a standard sterile 15 mL polypropylene conical tube containing PBS, and placed on ice. […] The spleen is placed in ice cold sterile PBS in a 15 mL collection tube. The spleen is removed from the collection tube and placed in a 100 micron 50 mL conical tube cell strainer (BD Falcon #352360). The spleen is processed by gentle rubbing of the spleen tissue against the surface of the cell strainer with the end of a 5 mL syringe plunger in a circular motion. The surface of the strainer is rinsed with 10 mL room temperature sterile DPBS (HyClone SH30028) 3 times during the process. […] The cell pellet is collected by centrifugation (300×g) and washed three times with 30 mL sterile DPBS. The cells are counted and resuspended in DPBS at the desired implant concentration. Bone Marrow Collection. […] Flow cytometry analysis of human white cells. Submandibular blood samples from in vivo studies are collected. Fluor-conjugated antibody stains are added according to the manufacturer's instructions (anti-human CD33-PE (clone WM53, BD Cat #555450), anti-human CD14-APC (clone MφpP9, BD Cat #340436), anti-human CD15-V450 (clone HI98, BD Cat #561584), anti-human CD117-BV421 (clone YB5.B8, BD Cat #562434), anti-human […]7 (clone ICRF44, BD Cat #557754), anti-human […]7 (clone HI30, BD Cat #557748), and anti-human CD3-FITC (clone SK7, BD Cat #340542)). The samples are incubated for 30 minutes at room temperature, protected from light. After the incubation, 1.5 mL 1×BD Lyse/Fix (37° C., (BD #558049)) is added to each sample and incubated for 12 minutes at room temperature. The tubes are centrifuged at 300×g for 7 minutes. BD Lyse/Fix solution is aspirated and the cell pellet washed with stain/wash buffer 3 times (1 wash step consisted of: pellet resuspended in 3 mL stain/wash buffer, centrifuged at 300×g, aspirated wash). Fixed cells are then resuspended in 300 to 400 μL stain/wash buffer. Samples are analyzed on a Becton Dickinson FACSVerse Flow cytometer (Cat #651155 Serial #Z6511550447) using standard flow cytometry principles and techniques. Samples are analyzed on the same day as they are stained and fixed. Population gating and data analysis of percent population are performed in the FACSuite software on the FACSVerse cytometer. Percent population values from the data analysis are plotted in Graphpad Prism or in JMP13. […]

[2] = system: IDH1(R132H) primary human AML cells; assay: AML cell differentiation in blood (flow cytometry, % hCD33+hCD11b+ of hCD45+ cells), human AML PDx models in NSG mice; assay type: in vivo; details: for AML cell differentiation (% hCD33 + hCD11b+ (of hCD45+ cells)): F: 50 mg/kg Midostaurin, QD, PO, one animal
Description: as §1

[3] = system: IDH1(R132H) primary human AML cells; assay: AML clearance in peripheral blood (flow cytometry, % hCD33+hCD45+ of total white cells), human AML PDx models in NSG mice; assay type: in vivo; details: for AML clearance (% hCD33 + hCD45+ (of total white cells)): 50 mg/kg Midostaurin, QD, PO, each value one animal, 50 mg/kg; for % peripheral blood AML cells (treatment group value): group F: midostaurin (50 mg/kg)
Description: as §1

2-HG production = assay: Plasma 2-HG inhibition (LC-MS metabolite analysis in plasma of AML PDx model); assay type: in vivo, human
[4] = 50 mg/kg Midostaurin, QD, PO, each line one animal
[5] = plasma, F: 50 mg/kg Midostaurin, QD, PO, one line per animal

CO[C@@H]1[C@H](N(C)C(=O)c2ccccc2)C[C@H]2O[C@]1(C)n1c3ccccc3c3c4c(c5c6ccccc6n2c5c31)C(=O)NC4 [Midostaurin, reference compound]
Bone Marrow AML Clearance: % hCD33 + hCD45+ (% of white cells) [1, 4]: 51.84% and 6.3% and 22.34% and 59.24% and 25.84% | Bone Marrow AML Clearance: % hCD45+ (% of white cells) [1, 4]: 51.3% and 6.25% and 22.22% and 58.42% and 25.71% | % human AML cells in bone marrow (of white cells; lower = more clearance) ([1]; group F: midostaurin (50 mg/kg), vehicle 86%): 26% | AML cell differentiation (% hCD33 + hCD11b+ (of hCD45+ cells)) ([2]; treatment day 7): 25.48% and 12.53% and 9% and 38.3% and 27.14% | AML cell differentiation (% hCD33 + hCD11b+ (of hCD45+ cells)) ([2]; treatment day 23): 25.27% and 17.13% and 9.1% and 36.3% and 25.56% | AML cell differentiation (% hCD33 + hCD11b+ (of hCD45+ cells)) ([2]; treatment day 36): 45.81% and 34.03% and 21.16% and 47.53% and 25.64% | AML cell differentiation (% hCD33 + hCD11b+ (of hCD45+ cells)) ([2]; treatment day 50): 43.86% and 28.75% and 20.78% and 40% and 30.3% | AML cell differentiation (% hCD33 + hCD11b+ (of hCD45+ cells)) ([2]; treatment day −8 (before treatment)): 19.58% and 13.81% and 18.12% and 19.57% | % AML cell differentiation (treatment group value) ([2]; day 50, group F: midostaurin (50 mg/kg), vehicle 28%): 33% | AML clearance (% hCD33 + hCD45+ (of total white cells)) ([3]; Treatment day 7): 10.05% and 3.62% and 8.05% and 11.35% and 2.53% | AML clearance (% hCD33 + hCD45+ (of total white cells)) ([3]; Treatment day 23): 6.24% and 3.75% and 7.09% and 2.63% and 0.84% | AML clearance (% hCD33 + hCD45+ (of total white cells)) ([3]; Treatment day 36): 3.7% and 1.83% and 4.68% and 2.15% and 0.28% | AML clearance (% hCD33 + hCD45+ (of total white cells)) ([3]; Treatment day 50): 2.21% and 0.76% and 3.72% and 1.29% and 0.21% | AML clearance (% hCD33 + hCD45+ (of total white cells)) ([3]; Treatment day 64): 7.01% and 2.16% and 3.93% and 4.84% and 0.18% | AML clearance (% hCD33 + hCD45+ (of total white cells)) ([3]; Treatment day 78): 18.03% and 2.94% and 8.24% and 14.27% and 0.14% | AML clearance (% hCD33 + hCD45+ (of total white cells)) ([3]; Treatment day 92): 35.38% and 4.09% and 14.55% and 30.48% and 0.86% | AML clearance (% hCD33 + hCD45+ (of total white cells)) ([3]; Treatment day −8): 7.94% and 8.17% and 6.23% and 2.27% | % peripheral blood AML cells (treatment group value) ([3]; day 50, vehicle 32%): 1.1% | % peripheral blood AML cells (treatment group value) ([3]; day 64, vehicle 67%): 2.2% | % peripheral blood AML cells (treatment group value) ([3]; day 78, vehicle 129%): 3.9% | % plasma 2-HG (treatment group value) (2-HG production; group F: midostaurin (50 mg/kg), vehicle 100%): 70% | 2-HG (2-HG production; [5]): 14.919 µM and 11.402 µM and 7.494 µM and 21.55 µM and 10.075 µM | Naive Subtracted 2-HG (2-HG production; [5]): 12.51 µM and 8.993 µM and 5.085 µM and 19.141 µM and 7.666 µM

From US12440493B2, “Combination therapy for treating cancer comprising substituted piperazines” (Eli Lilly and Company, priority 2020, dated 2025)
